# Source: the supplement of paper PMC4862054
# Experiments:
# Conditions in all cases: incubation time: 72 h
# [1] = system: CAL-148; experiment: normalised viability (% of control), CellTiter-Blue; higher = more viable cells (about 100 = DMSO control)
# Method: (§1)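 DSRT, CellTiter-Blue viability, 72 h incubation. Signal is normalised to DMSO and benzethonium chloride controls. Value is the normalised response at dose 8.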
# [2] = system: CAL-51; experiment: as above
# Method: as §1
# [3] = system: CAL-85-1; experiment: as above
# Method: as §1
# [4] = system: DU-4475; experiment: as above
# Method: as §1
# [5] = system: HDQ-P1; experiment: as above
# Method: as §1
# [6] = system: MDA-MB-453; experiment: as above
# Method: as §1
# [7] = system: BT-474; experiment: normalised viability (% of control), CellTiter-Blue; higher = more viable cells (about 100 = DMSO control)
# Outline: (§2)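 Normalised viability is given for a single listed concentration of the series. In 384-well plates, breast cancer cell lines were incubated 72 h with compound, then read with CellTiter-Blue (2 h, 37 °C) at 560/590 nm. Per-plate scaling set vehicle to 100 and a positive kill control to 0, with Z'-factor quality control.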
# [8] = system: BT-549; experiment: as above
# Outline: as §2
# [9] = system: CAL-120; experiment: as above
# Outline: as §2
# [10] = system: CAL-148; experiment: as above; remark: listed apart in the source
# Outline: as §2
# [11] = system: CAL-51; experiment: as above; remark: listed apart in the source
# Outline: as §2
# [12] = system: CAL-85-1; experiment: as above; remark: listed apart in the source
# Outline: as §2
# [13] = system: DU-4475; experiment: as above; remark: listed apart in the source
# Outline: as §2
# [14] = system: HCC1143; experiment: as above
# Outline: as §2
# [15] = system: HCC1599; experiment: as above
# Outline: as §2
# [16] = system: HCC1937; experiment: as above
# Outline: as §2
# [17] = system: HDQ-P1; experiment: as above; remark: listed apart in the source
# Outline: as §2
# [18] = system: Hs578T; experiment: as above
# Outline: as §2
# [19] = system: MDA-MB-231; experiment: as above
# Outline: as §2
# [20] = system: MDA-MB-436; experiment: as above
# Outline: as §2
# [21] = system: MDA-MB-453; experiment: as above; remark: listed apart in the source
# Outline: as §2
# [22] = system: MDA-MB-468; experiment: as above
# Outline: as §2
# [23] = system: MFM-223; experiment: as above
# Outline: as §2
# [24] = system: SK-BR-3; experiment: as above
# Outline: as §2
# [25] = system: BT-474; experiment: drug sensitivity score (DSS), CellTiter-Glo (DSS (AUC-based score)); higher = stronger drug effect (viability inhibition or cytotoxicity); extreme values may be limits of the assay
# Outline: (§3)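 Breast cancer cell lines were seeded in 20 µl suspension into 384-well plates already holding compound and incubated for 72 h. Each compound was tested at 5 concentrations in 10-fold steps across its own 10,000-fold range. Plates were normalised to 0.1 % DMSO and a positive kill control after CellTox Green and then CellTiter-Glo readings. The area under the fitted dose-response curve served as the basis for the drug sensitivity score.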
# [26] = system: HDQ-P1; experiment: as above
# Outline: as §3
# [27] = system: Hs578T; experiment: as above
# Outline: as §3
# [28] = system: MCF-10A; experiment: as above
# Outline: as §3
# [29] = system: MDA-MB-453; experiment: as above
# Outline: as §3
# [30] = system: MDA-MB-468; experiment: as above
# Outline: as §3
smiles,measurement,setting,value
CN(C)C[C@@H]1CCn2cc(c3ccccc32)C2=C(C(=O)NC2=O)c2cn(c3ccccc23)CCO1 [Ruboxistaurin],normalised viability,[1]; 3000 nM,79.4%
same,normalised viability,[2]; 3000 nM,70.4%
same,normalised viability,[3]; 3000 nM,106%
same,normalised viability,[4]; 3000 nM,61.1%
same,normalised viability,[5]; 3000 nM,74.2%
same,normalised viability,[6]; 3000 nM,74.2%
same,normalised viability,[7]; 10 nM,96.7%
same,normalised viability,[8]; 10 nM,85.2%
same,normalised viability,[9]; 10 nM,108%
same,normalised viability,[10]; 3 nM,124%
same,normalised viability,[11]; 3 nM,98.6%
same,normalised viability,[12]; 3 nM,105%
same,normalised viability,[13]; 3 nM,113%
same,normalised viability,[14]; 10 nM,135%
same,normalised viability,[15]; 10 nM,109%
same,normalised viability,[16]; 10 nM,44.5%
same,normalised viability,[17]; 3 nM,79.3%
same,normalised viability,[18]; 10 nM,96.4%
same,normalised viability,[19]; 10 nM,95%
same,normalised viability,[20]; 10 nM,94.1%
same,normalised viability,[21]; 3 nM,94.7%
same,normalised viability,[22]; 10 nM,94.5%
same,normalised viability,[23]; 10 nM,97.6%
same,normalised viability,[24]; 10 nM,101%
same,drug sensitivity score,[25],7
same,drug sensitivity score,[26],4.6
same,drug sensitivity score,[27],0
same,drug sensitivity score,[28],3.64
same,drug sensitivity score,[29],6.05
same,drug sensitivity score,[30],8.68
C[C@]12CC[C@H](O)CC1=CC[C@@H]1[C@@H]2CC[C@]2(C)C(c3cccnc3)=CC[C@@H]12 [Abiraterone],normalised viability,[1]; 1500 nM,98.1%
same,normalised viability,[2]; 1500 nM,106%
same,normalised viability,[3]; 1500 nM,97.5%
same,normalised viability,[4]; 1500 nM,88.1%
same,normalised viability,[5]; 1500 nM,125%
same,normalised viability,[6]; 1500 nM,96%
same,normalised viability,[7]; 5 nM,116%
same,normalised viability,[8]; 5 nM,99.7%
same,normalised viability,[9]; 5 nM,81%
same,normalised viability,[10]; 1.5 nM,91.5%
same,normalised viability,[11]; 1.5 nM,104%
same,normalised viability,[12]; 1.5 nM,93.2%
same,normalised viability,[13]; 1.5 nM,84.6%
same,normalised viability,[14]; 5 nM,67.2%
same,normalised viability,[15]; 5 nM,104%
same,normalised viability,[16]; 5 nM,110%
same,normalised viability,[17]; 1.5 nM,104%
same,normalised viability,[18]; 5 nM,101%
same,normalised viability,[19]; 5 nM,86.8%
same,normalised viability,[20]; 5 nM,101%
same,normalised viability,[21]; 1.5 nM,104%
same,normalised viability,[22]; 5 nM,105%
same,normalised viability,[23]; 5 nM,102%
same,normalised viability,[24]; 5 nM,97.7%
same,drug sensitivity score,[25],0
same,drug sensitivity score,[26],0
same,drug sensitivity score,[27],0
same,drug sensitivity score,[28],0
same,drug sensitivity score,[29],0
same,drug sensitivity score,[30],0
CCCCCCCCc1ccc(CCC(N)(CO)CO)cc1 [Fingolimod],normalised viability,[1]; 3000 nM,88.8%
same,normalised viability,[2]; 3000 nM,109%
same,normalised viability,[3]; 3000 nM,91.7%
same,normalised viability,[4]; 3000 nM,117%
same,normalised viability,[5]; 3000 nM,95%
same,normalised viability,[6]; 3000 nM,95.2%
same,normalised viability,[7]; 10 nM,121%
same,normalised viability,[8]; 10 nM,94%
same,normalised viability,[9]; 10 nM,91%
same,normalised viability,[10]; 3 nM,85.7%
same,normalised viability,[11]; 3 nM,119%
same,normalised viability,[12]; 3 nM,92.2%
same,normalised viability,[13]; 3 nM,103%
same,normalised viability,[14]; 10 nM,80.8%
same,normalised viability,[15]; 10 nM,88.3%
same,normalised viability,[16]; 10 nM,116%
same,normalised viability,[17]; 3 nM,116%
same,normalised viability,[18]; 10 nM,98.1%
same,normalised viability,[19]; 10 nM,94.8%
same,normalised viability,[20]; 10 nM,100%
same,normalised viability,[21]; 3 nM,114%
same,normalised viability,[22]; 10 nM,106%
same,normalised viability,[23]; 10 nM,92.5%
same,normalised viability,[24]; 10 nM,106%
same,drug sensitivity score,[25],6.1
same,drug sensitivity score,[26],2.05
same,drug sensitivity score,[27],0
same,drug sensitivity score,[28],5.32
same,drug sensitivity score,[29],5.2
same,drug sensitivity score,[30],5.78
O=C(O)CCCc1ccc(N(CCCl)CCCl)cc1 [Chlorambucil],normalised viability,[1]; 3000 nM,96.7%
same,normalised viability,[2]; 3000 nM,115%
same,normalised viability,[3]; 3000 nM,97.7%
same,normalised viability,[4]; 3000 nM,125%
same,normalised viability,[5]; 3000 nM,107%
same,normalised viability,[6]; 3000 nM,108%
same,normalised viability,[7]; 10 nM,120%
same,normalised viability,[8]; 10 nM,80.9%
same,normalised viability,[9]; 10 nM,104%
same,normalised viability,[10]; 3 nM,98%
same,normalised viability,[11]; 3 nM,115%
same,normalised viability,[12]; 3 nM,101%
same,normalised viability,[13]; 3 nM,101%
same,normalised viability,[14]; 10 nM,83.5%
same,normalised viability,[15]; 10 nM,108%
same,normalised viability,[16]; 10 nM,51.5%
same,normalised viability,[17]; 3 nM,114%
same,normalised viability,[18]; 10 nM,111%
same,normalised viability,[19]; 10 nM,101%
same,normalised viability,[20]; 10 nM,89.7%
same,normalised viability,[21]; 3 nM,131%
same,normalised viability,[22]; 10 nM,107%
same,normalised viability,[23]; 10 nM,95.5%
same,normalised viability,[24]; 10 nM,113%
same,drug sensitivity score,[25],0
same,drug sensitivity score,[26],0
same,drug sensitivity score,[27],0
same,drug sensitivity score,[28],0
same,drug sensitivity score,[29],0
same,drug sensitivity score,[30],0
